Patent US20100021918A1, “METHOD FOR ASSAYING ACTION OF ANTITUMOR AGENT USING SPLICING DEFECTS AS INDEX” (Eisai R&D Management Co., Ltd., priority 2007, published 2010)

Test system: p27/Kip1
Experiment: Western blotting of abnormal protein from pre-mRNA, p27/Kip1
Format: cell-based, human
Conditions: HeLa cells, about 100 nM, 24 hours; untreated: only a 27 kDa band (FIG. 4)
Text: Consequently the protein may serves as a protein marker to monitor the action of (8E,12E,14E)-7-((4-cycloheptylpiperazin-1-yl)carbonyl)oxy-3,6,16,21-tetrahydroxy-6,10,12,16,20-pentamethyl-18,19-epoxytricosa-8,12,14-trien-11-olide. Whether the pre-mRNA-dependent abnormal protein practically emerged upon the treatment of (8E,12E,14E)-7-((4-cycloheptylpiperazin-1-yl)carbonyl)oxy-3,6,16,21-tetrahydroxy-6,10,12,16,20-pentamethyl-18,19-epoxytricosa-8,12,14-trien-11-olide was examined by using cancer cells (HaLa). […] Based on these findings, the protein generated from pre-mRNA can serve as the marker as well.
About 3×10^5 cells of HeLa cells were first seeded in a 24-well culture plate (bottom area: 2 cm^2), and 18 hours later, the compound was added thereto at the indicated concentration, followed by additional 24-hour culturing. The cells were washed once with PBS(−), and then were lysed by treating with 0.2 ml of M-PER reagent (PIERCE) for 30 minutes. The collected lysate was filtered with a 0.45 μm filter to remove insoluble matters and then combined with an equal amount of 2×SDS-PAGE sample solution. The mixture was heated to be denatured at 95° C. for five minutes to yield a sample to be analyzed.
The analysis sample (15 μl each) was separated with 5-20% SDS-PAGE and transferred onto a PVDF membrane (Hybond-P: GE-Amersham). […]

## CCC(O)C(C)C1OC1CC(C)(O)/C=C/C=C(\C)C1OC(=O)CC(O)CCC(C)(O)C(OC(=O)N2CCN(C3CCCCCC3)CC2)/C=C/C1C (stereo not shown) [E7107, (8E,12E,14E)-7-((4-cycloheptylpiperazin-1-yl)carbonyl)oxy-3,6,16,21-tetrahydroxy-6,10,12,16,20-pentamethyl-18,19-epoxytricosa-8,12,14-trien-11-olide]
  p27/Kip1 bands in Western blot: appearance of a band with about 22 kDa was confirmed
